# Key:
# [1] = test system: SARS2-S pseudotyped VSV, Beta
# [2] = test system: SARS2-S pseudotyped VSV, Alpha
# [3] = test system: SARS2-S pseudotyped VSV, Delta
# [4] = test system: SARS2-S pseudotyped VSV, Omicron BA.1
# [5] = test system: SARS2-S pseudotyped VSV, Omicron BA.2
# [6] = target: SARS-CoV-2 spike protein (Severe acute respiratory syndrome coronavirus 2, UniProt P0DTC2); format: binding; set-up: key: Results labeled “−” represent decreased binding; Results labeled “0” represent substantially similar binding; Results labeled “1” represent the original sequence; Results labeled “+” represent about 105-200% binding; Results labeled “++” represent about 200-300% binding; Results labeled “+++” represent about 300-500% binding; Results labeled “++++” represent over about 500% binding
# [7] = test system: omicron variant; settings: cited from earlier work
Molecule,binding standardized to SEQ ID NO: 1 [6],also measured
CC[C@H](C)[C@@H]1NC(=O)[C@H](CCC(N)=O)NC(=O)[C@H](CCC(=O)O)NC(=O)[C@H](CCCNC(=N)N)NC(=O)[C@@H]2CCCN2C(=O)[C@H](CCCNC(=N)N)NC(=O)[C@H](CCCNC(=N)N)NC(=O)[C@H](Cc2ccc(O)cc2)NC(=O)CSC[C@@H](C(=O)NCC(N)=O)NC(=O)[C@H](Cc2ccccc2)NC(=O)[C@H](C(C)C)NC(=O)[C@H](Cc2c[nH]c3ccccc23)NC(=O)[C@H](CC(C)C)NC(=O)[C@H](CO)NC(=O)CNC(=O)[C@H]([C@@H](C)CC)NC(=O)[C@H]([C@@H](C)CC)NC1=O [Compound S1b3inL1],,IC50 [1]: 5.2 µM; IC50 [2]: 2.6 µM; IC50 [3]: 3.5 µM; IC50 [4]: 5.2 µM; IC50 [5]: 3.5 µM
ARPREQIIIGSLWVF [SEQ ID NO: 16],−,
RAPREQIIIGSLWVF [SEQ ID NO: 17],−,
RRPAEQIIIGSLWVF [SEQ ID NO: 19],0,
RRPREQAIIGSLWVF [SEQ ID NO: 22],−,
RRPREQIAIGSLWVF [SEQ ID NO: 23],−,
RRPREQIIAGSLWVF [SEQ ID NO: 24],−,
RRPREQIIIASLWVF [SEQ ID NO: 25],−,
RRPREQIIIGALWVF [SEQ ID NO: 26],−,
RRPREQIIIGSAWVF [SEQ ID NO: 27],−,
RRPREQIIIGSLAVF [SEQ ID NO: 28],−,
RRPREQIIIGSLWVF [Compound S1b3inL1],1,
Sotrovimab,,fold loss in potency / decrease in activity against omicron [7]: 3 fold
